Here are results for nine molecules from patent US5196445A, “Heteroaryl-3-oxo-propanenitrile derivatives useful in the treatment of rheumatoid arthritis and other autoimmune diseases” (Farmitalia Carlo Erba Srl, priority 1989, dated 1993).

Data set [1] is described as follows: approximate acute toxicity (LD50) in the mouse, per os, single administration of increasing doses. The following applies: in vivo, po, measured on the seventh day after treatment. The text has this: In view of their high biological activity and low toxicity the compounds of the invention can be safely used in medicine. For example, the approximate acute toxicity (LD50) in the mouse of the compounds 2-cyano-3-(1,4-dihydro-1-phenyl-[1]-benzopyrano[4,3-c]pyrazol-3-yl)-3-oxo- N-phenyl-propanamide, and 2-cyano-3-(1,4-dihydro-1-phenyl-[1]-benzothiopyrano[4,3-c]pyrazol-3-yl)-3- oxo-N-phenyl-propanamide, determined per os with single administration of increasing doses and measured on the seventh day after the day of treatment, is higher than 800 mg/kg. Analogous toxocity data have been found for the other compounds of the invention.

For data set [2], the system named is adjuvant arthritis in rats. The data set is described as follows: Mycobacterium smegmatis induced adjuvant arthritis in rats (contralateral/left hind paw oedema, systemic phase). Type of data set: in vivo, male Lewis rats. The following applies: 10 mg/kg i.p.; for inhibition in vivo at 10 mg/kg: Mycolicibacterium smegmatis, ip, left hind paw oedema; for Oedema volume ± S.E., day 18 / Oedema volume ± S.E., day 21 / Oedema volume ± S.E., day 25: left hind paw, systemic phase. How it is done:
Mycobacterium smegmatis induced adjuvant arthritis in rats Adjuvant arthritis is induced in groups of 10-30 male Lewis rats, weighing 150 g, by injecting 75 μg of M. smegmatis in 50 μl of mineral oil into the plantar surface of the right hind foot pad. The test compounds are administered at 10 mg/kg i.p.), 5 days a week for 4 weeks, starting on the same day of the mycobacterium injection. The volume of the controlateral (systematic phase) hind foot pad is measured pletismographically on days 18, 21 and 25.

The mark [3] stands for this setting: 432 h, Table 1, day 18, read-out: % inhibition vs. controls, day 18.
[4] abbreviates: 504 h, Table 1, day 21, read-out: % inhibition vs. controls, day 21.
Setting [5] is: 600 h, Table 1, day 25, read-out: % inhibition vs. controls, day 25.
[6] abbreviates: 432 h, Table 2, day 18, read-out: % inhibition vs. controls, day 18.
Setting [7] is: 504 h, Table 2, day 21, read-out: % inhibition vs. controls, day 21.
The mark [8] stands for this setting: 600 h, Table 2, day 25, read-out: % inhibition vs. controls, day 25.

Each structure is given as a SMILES string. Read-outs that look alike come from different tables or passages of the source.

Turning to `N#CC(C(=O)Nc1ccccc1)C(=O)c1nn(-c2ccccc2)c2c1CSc1ccccc1-2` (centres unmarked) [FCE 24578, 2-cyano-3-(1,4-dihydro-1-phenyl-[1]-benzothiopyrano[4,3-c]pyrazol-3-yl)-3-oxo-N-phenyl-propanamide], the LD50 at 168 h in data set [1] was over 800 mg/kg. Moreover, the inhibition in vivo at 10 mg/kg was 75% in data set [2] (setting [3]), 65% in data set [2] (setting [4]) and 68% in data set [2] (setting [5]). In data set [2] (Table 1, day 18), the “Oedema volume ± S.E., day 18” value was 310 ± 180 mm^3. The “Oedema volume ± S.E., day 21” value in data set [2] (Table 1, day 21) came to 470 ± 215 mm^3. For the same molecule, in data set [2] (Table 1, day 25), the “Oedema volume ± S.E., day 25” value came to 460 ± 241 mm^3.

As to `N#CC(C(=O)Nc1ccccc1)C(=O)c1nn(-c2ccccc2)c2c1COc1ccccc1-2` (centres unmarked) [FCE 25158, 2-cyano-3-(1,4-dihydro-1-phenyl-[1]-benzopyrano[4,3-c]pyrazol-3-yl)-3-oxo-N-phenyl-propanamide], the LD50 at 168 h in data set [1] is over 800 mg/kg. In addition, the inhibition in vivo at 10 mg/kg in data set [2] (setting [6]) was determined as 30%; in data set [2] (setting [7]) it was 38%; in data set [2] (setting [8]), 41%. Also, the “Oedema volume ± S.E., day 18” value in data set [2] (Table 2, day 18) is 700 ± 198 mm^3. The “Oedema volume ± S.E., day 21” value in data set [2] (Table 2, day 21) is reported as 683 ± 174 mm^3. For the same molecule, the “Oedema volume ± S.E., day 25” value in data set [2] (Table 2, day 25) turned out to be 717 ± 182 mm^3.

`N#CC(C(=O)Nc1ccccc1)C(=O)c1nn(-c2ccccc2)c2c1CCc1ccccc1-2` (centres unmarked) [FCE 25161, 2-cyano-3-(4,5-dihydro-1-phenyl-[1]-benz[g]indazol-3-yl)-3-oxo-N-phenyl-propanamide]: the inhibition in vivo at 10 mg/kg in data set [2] (setting [3]) stood at 50%; in data set [2] (setting [4]), 49%; in data set [2] (setting [5]) it was 49%. Moreover, the “Oedema volume ± S.E., day 18” value in data set [2] (Table 1, day 18) amounted to 665 ± 91 mm^3. In data set [2] (Table 1, day 21), the “Oedema volume ± S.E., day 21” value was 675 ± 96 mm^3. Besides, the “Oedema volume ± S.E., day 25” value in data set [2] (Table 1, day 25) came out at 685 ± 93 mm^3.

Turning to `N#CC(C(=O)Nc1ccccc1)C(=O)c1nn(-c2ccccc2)c2c1Cc1ccccc1-2` (centres unmarked) [FCE 25276, 2-cyano-3-(1,4-dihydro-1-phenyl-indeno[1,2-c]pyrazol-3-yl)-3-oxo-N-phenyl-propanamide], the inhibition in vivo at 10 mg/kg in data set [2] (setting [6]) turned out to be 41%; in data set [2] (setting [7]), 47%; in data set [2] (setting [8]), 58%. Besides, in data set [2] (Table 2, day 18), the “Oedema volume ± S.E., day 18” value is reported as 587 ± 233 mm^3. The “Oedema volume ± S.E., day 21” value in data set [2] (Table 2, day 21) is 587 ± 254 mm^3. Besides, in data set [2] (Table 2, day 25), the “Oedema volume ± S.E., day 25” value is listed as 512 ± 304 mm^3.

For the molecule `N#CC(C(=O)NCc1ccccc1)C(=O)c1nn(-c2ccccc2)c2c1CSc1ccccc1-2` (centres unmarked) [FCE 25324, N-benzyl-2-cyano-3-(1,4-dihydro-1-phenyl-[1]-benzothiopyrano [4,3-c]pyrazol-3-yl)-3-oxo-propanamide], the inhibition in vivo at 10 mg/kg in data set [2] (setting [3]) was 51%; in data set [2] (setting [4]), 57%; in data set [2] (setting [5]), 60%. The “Oedema volume ± S.E., day 18” value in data set [2] (Table 1, day 18) came to 565 ± 72 mm^3. In data set [2] (Table 1, day 21), the “Oedema volume ± S.E., day 21” value is given as 575 ± 97 mm^3. Besides, in data set [2] (Table 1, day 25), the “Oedema volume ± S.E., day 25” value is recorded as 545 ± 78 mm^3.

Take `N#CC(C(=O)Nc1ccc(F)cc1)C(=O)c1nn(-c2ccc(F)cc2)c2c1Cc1ccccc1-2` (centres unmarked) [FCE 26317, 2-cyano-N-(4-fluoro-phenyl)-3-[1-(4-fluoro-phenyl)-1,4-dihydro-indeno[1,2-c]pyrazol-3-yl]-3-oxo-propanamide]: the results for the inhibition in vivo at 10 mg/kg in data set [2] (setting [6]), in data set [2] (setting [7]) and in data set [2] (setting [8]) were 37%, 38% and 44%, respectively. For the same molecule, the “Oedema volume ± S.E., day 18” value in data set [2] (Table 2, day 18) was found to be 629 ± 347 mm^3. The “Oedema volume ± S.E., day 21” value in data set [2] (Table 2, day 21) was determined as 686 ± 393 mm^3. In addition, the “Oedema volume ± S.E., day 25” value in data set [2] (Table 2, day 25) is 683 ± 417 mm^3.

For the molecule `N#CC(C(=O)Nc1ccccc1)C(=O)c1nn(-c2ccccc2)c2c1Cc1c(CN3CCOCC3)cccc1-2` (centres unmarked) [FCE 26626, 2-cyano-3-(1,4-dihydro-5-morpholinomethyl-1-phenyl-indeno[1,2-c]pyrazol-3-yl)-3-oxo-N-phenyl-propanamide], the values for the inhibition in vivo at 10 mg/kg in data set [2] (setting [6]), in data set [2] (setting [7]) and in data set [2] (setting [8]) were 57%, 47% and 54%, respectively. The “Oedema volume ± S.E., day 18” value in data set [2] (Table 2, day 18) was 425 ± 173 mm^3. Besides, in data set [2] (Table 2, day 21), the “Oedema volume ± S.E., day 21” value is listed as 587 ± 222 mm^3. Further, in data set [2] (Table 2, day 25), the “Oedema volume ± S.E., day 25” value was 562 ± 234 mm^3.

On to `CC(C)(C)OC(=O)c1cccc2c1SCc1c(C(=O)C(C#N)C(=O)Nc3ccccc3)nn(-c3ccccc3)c1-2` (centres unmarked) [FCE 26674, 3-(6-tert-butoxycarbonyl-1,4-dihydro-1-phenyl-[1]-benzothiopyrano[4,3-c]pyrazol-3-yl)-2-cyano-3-oxo-N-phenyl-propanamide], for which the inhibition in vivo at 10 mg/kg in data set [2] (setting [6]) came to 24%; in data set [2] (setting [7]) it was 40%; in data set [2] (setting [8]) it was 34%. The “Oedema volume ± S.E., day 18” value in data set [2] (Table 2, day 18) is listed as 757 ± 209 mm^3. In data set [2] (Table 2, day 21), the “Oedema volume ± S.E., day 21” value was 662 ± 182 mm^3. Also, the “Oedema volume ± S.E., day 25” value in data set [2] (Table 2, day 25) was found to be 812 ± 226 mm^3.

Take `N#CC(C(=O)Nc1ccccc1)C(=O)c1nn(-c2ccccc2)c2c1Cc1ccc(F)cc1-2` (centres unmarked) [FCE 26676, 2-cyano-3-(7-fluoro-1,4-dihydro-1-phenyl-indeno[1,2-c]pyrazol-3-yl)-3-oxo-N-phenyl-propanamide]: the inhibition in vivo at 10 mg/kg was 65% in data set [2] (setting [6]), 54% in data set [2] (setting [7]) and 50% in data set [2] (setting [8]). In addition, the “Oedema volume ± S.E., day 18” value in data set [2] (Table 2, day 18) is reported as 350 ± 127 mm^3. In addition, in data set [2] (Table 2, day 21), the “Oedema volume ± S.E., day 21” value was determined as 512 ± 203 mm^3. For the same molecule, the “Oedema volume ± S.E., day 25” value in data set [2] (Table 2, day 25) is 612 ± 225 mm^3.

By LD50 is commonly meant the dose at which mortality reaches 50%. High values mean lower toxicity, low ones greater toxicity.
